Measurements: US20250325542A1, “INHIBITORS OF ANTIMOCROBIAL RESISTANCE AND METHOS USING SAME” (Baylor College of Medicine, priority 2022, published 2025)
“Also recorded” adds a separate entry of the source. Read-outs that look alike come from different tables or passages of the source.

What was measured:
E. coli = assay: MIC of PBP-3 screening hits against E. coli; format: cell-based; settings: for MIC: Escherichia coli, inhibitor alone, read-out: E. coli minimum inhibitory concentration (MIC)
Procedure: (§1) Similarly to KPC-2 and NDM-1, PBP-3 was screened against the β-lactamase-focused library and several hits were identified from qDOS38_2 and qDOS38_4 (Table 7). Since PBP-3 is not a β-lactamase enzyme, the inhibition assay cannot be used to determine the biochemical potency of inhibitor against PBP-3. Instead, in vivo potency was determined directly against E. coli and A. baumanii. Since all bacteria express PBP-3 naturally, other modifications to wild-type bacteria were not necessary.
(§2) Unlike β-lactamase inhibitor MIC determinations, which measure the synergy between inhibitor and antibiotic, PBP-3 inhibitor MIC determination only measures a single dimension concentration gradient of the inhibitor.

A. baumanii = assay: MIC of PBP-3 screening hits against A. baumanii; format: cell-based; settings: inhibitor alone
Procedure: as §1, §2

NDM-1 = NDM-1 (Klebsiella pneumoniae, UniProt C7C422); format: biochemical
E. coli expressing NDM-1 = format: cell-based; settings: Ins = insoluble
[1] = Solubility observed in assay media; format: physicochemical
KPC-2 [2] = target: T1, KPC-2 (Klebsiella pneumoniae, UniProt Q9F663); assay: KPC-2 enzyme inhibition (Ki); format: biochemical
Excerpt: Several hits were identified from the qDOS38_1 library against the KPC-2 enzyme. All compounds were synthesized without linker C1a. Among the hit compounds, CDD-2312 had the highest enrichment score of 5.9 but a lower count number of 115 compared to other libraries screened at the same time.

KPC-2 [3] = target: T1, KPC-2; assay: DNA-encoded library affinity selection against KPC-2; format: binding; settings: qDOS38_1 library, on-DNA
E. coli NDM-1/XL-1B = assay: Accumulation assay in bacteria (LC-MS); format: cell-based; settings: 50 μM compound, 10 min at 37° C.; tetracycline positive, clindamycin negative control
Procedure: Briefly, the overnight culture of E. coli NDM-1/XL-1B was inoculated into fresh Luria Bertani (LB) broth (1:100 v/v) and incubated at 37° C. with shaking to an optical density (OD600) of 0.55-0.60. The bacteria were pelleted by centrifugation and washed with 1× phosphate-buffered saline (PBS) before being re-suspended in PBS (28 times concentrated). The colony-forming units (CFUs) were determined by a calibration curve. Re-suspended cells were aliquoted into 1.5 mL Eppendorf tubes and recovered at 37° C. for 5 min. The compounds and controls were added with a final concentration of 50 μM. The mixtures were incubated at 37° C. for 10 min and the OD600 values were recorded to note the growth changes. To collect the cell pellets, 800 μL bacteria-compound mixtures were layered onto 700 μL silicone oil (9:1 v/v, AR20/Sigma High Temperature, pre-cooled at −80° C.) and bacteria were pelleted through the silicone oil by centrifugation. Cell pellets were re-suspended in 200 μL H2O and lysed using three freeze-thaw cycles of 3 min in liquid nitrogen followed by 3 min in a 65° C. water bath. Supernatants were collected after centrifuging and the cell debris was re-suspended in 100 μL methanol. The mixtures from cell debris were then centrifuged, and the methanol supernatants were combined with the supernatants from the last step before LC-MS analysis.
Two NL of supernatant was injected into a Thermo TSQ Quantis MS coupled with a Thermo Vanish UHPLC for analysis. The Phenomenex Luna C18 column (1.0 mm×50 mm, 1.7 μm) was used for resolving tested compounds with the column temperature being kept constant at 40° C. […] The compound concentrations in the samples were calculated based on their corresponding standard curves. […]
This could be partially due to the low accumulation of compounds into the periplasm and/or due to modest in vitro inhibition potency (Ki). To discern between the possibilities, the accumulation of inhibitors into bacteria was quantified using mass spectrometry. Compounds were pre-incubated with E. coli inoculum before cells were washed, lysed, and analyzed via mass spectrometry. […]

Chain of NDM-1 (C7C422 whole entry, looked up, species assumed): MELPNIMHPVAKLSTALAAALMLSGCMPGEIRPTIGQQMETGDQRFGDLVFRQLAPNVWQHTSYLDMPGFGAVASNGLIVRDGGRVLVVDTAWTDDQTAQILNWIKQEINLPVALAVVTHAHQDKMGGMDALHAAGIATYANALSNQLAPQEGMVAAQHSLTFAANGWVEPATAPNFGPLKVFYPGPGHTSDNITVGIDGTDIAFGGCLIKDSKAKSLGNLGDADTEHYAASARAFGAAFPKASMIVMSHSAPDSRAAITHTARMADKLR
T1 sequence (Q9F663 whole entry, looked up, species assumed): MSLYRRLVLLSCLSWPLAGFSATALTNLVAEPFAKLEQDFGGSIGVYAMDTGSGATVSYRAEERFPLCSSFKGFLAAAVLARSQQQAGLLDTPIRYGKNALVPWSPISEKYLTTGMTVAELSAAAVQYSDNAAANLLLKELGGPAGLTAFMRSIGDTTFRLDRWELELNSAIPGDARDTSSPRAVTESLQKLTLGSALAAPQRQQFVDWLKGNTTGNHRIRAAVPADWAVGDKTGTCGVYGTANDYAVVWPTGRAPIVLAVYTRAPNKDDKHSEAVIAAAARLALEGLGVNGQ

In the case of `NC(Cc1ccc(O)c(O)c1)C(=O)NCCc1ccccc1` (centres unmarked) [CDD-2507, 2-amino-3-(3,4-dihydroxyphenyl)-N-phenethylpropanamide], the “growth of bacteria below the MIC” value (E. coli; 16 μg/mL, E. coli) is reported as “slower growth of bacteria”, the MIC (E. coli) is reported as 128 µg/mL and the “effect against A. baumanii” value (A. baumanii) is reported as “Neither of the compounds had any significant effect”.

In the case of `Cc1cc(CNc2cccc(CN)c2)cc(-c2ccc(C(=O)O)c(O)c2)c1` [CDD-2997, 3′-(((3-(aminomethyl)phenyl)amino)methyl)-3-hydroxy-5′-methyl-[1,1′-biphenyl]-4-carboxylic acid], the Ki (NDM-1) is reported as 530 ± 370 nM, the “Imipenem MIC (μg/mL)” value (E. coli expressing NDM-1; [inhibitor] 64 μg/mL) is reported as “Ins” and the “Imipenem MIC (μg/mL)” value (E. coli expressing NDM-1; [inhibitor] 128 μg/mL) is reported as “Ins”. For the same molecule, the “solubility in aqueous solution” value ([1]; MIC medium, above 64 μg/mL) was “low solubility in aqueous solution” and the solubility in buffer ([1]; at the accumulation assay concentration (50 μM)) was “low solubility in buffer”.

Molecule `COc1cc(-c2cnc(NCC(=O)O)nc2)cc(C=O)c1OCC(=O)N(C)C` [CDD-2312, (5-(4-(2-(dimethylamino)-2-oxoethoxy)-3-formyl-5-methoxyphenyl)pyrimidin-2-yl)glycine] has a Ki (KPC-2 [2]) of 657000 ± 123000 nM and an enrichment score (KPC-2 [3]) of 5.9.

With `NCc1cccc(NCc2cccc(-c3ccc(C(=O)O)c(O)c3)n2)c1` [CDD-2653, 4-(6-(((3-(aminomethyl)phenyl)amino)methyl)pyridin-2-yl)-2-hydroxybenzoic acid] the accumulation in bacteria (E. coli NDM-1/XL-1B) was “much higher”.

With `NCc1cccc(NCc2cccc(-c3ccc(C(=O)O)c(O)c3)c2)c1` [CDD-2616, 3′-(((3-(aminomethyl)phenyl)amino)methyl)-3-hydroxy-[1,1′-biphenyl]-4-carboxylic acid] the Ki (NDM-1) was 900 ± 440 nM, the “NDM-1 Ki (μM)” value (NDM-1) was “sub-micromolar inhibition potency” and the accumulation in bacteria (E. coli NDM-1/XL-1B) was “comparable to that of the positive control”.

With `Nc1cccc(NCc2ccc(-c3cncc(C(=O)O)c3)cc2)c1` [CDD-2396, 5-(4-(((3-aminophenyl)amino)methyl)phenyl)nicotinic acid] the MIC (E. coli) was 256 µg/mL and the “effect against A. baumanii” value (A. baumanii) was “Neither of the compounds had any significant effect”.

For `CNCc1cccc(NCc2ccc(-c3ccc(C(=O)O)c(O)c3)o2)c1` [CDD-2376, 2-hydroxy-4-(5-(((3-((methylamino)methyl)phenyl)amino)methyl)furan-2-yl)benzoic acid], the accumulation in bacteria (E. coli NDM-1/XL-1B) was “lowest amount of accumulation; also recorded: lowest of all three compounds tested and comparable to that of the negative control”.
